One data set deals with T1, 5-HT1A receptor (Rattus norvegicus, UniProt P19327).
T1 construct: from tissue; host or cells: rat (male Wistar) brain cortex membranes
T1 sequence (P19327 1-422): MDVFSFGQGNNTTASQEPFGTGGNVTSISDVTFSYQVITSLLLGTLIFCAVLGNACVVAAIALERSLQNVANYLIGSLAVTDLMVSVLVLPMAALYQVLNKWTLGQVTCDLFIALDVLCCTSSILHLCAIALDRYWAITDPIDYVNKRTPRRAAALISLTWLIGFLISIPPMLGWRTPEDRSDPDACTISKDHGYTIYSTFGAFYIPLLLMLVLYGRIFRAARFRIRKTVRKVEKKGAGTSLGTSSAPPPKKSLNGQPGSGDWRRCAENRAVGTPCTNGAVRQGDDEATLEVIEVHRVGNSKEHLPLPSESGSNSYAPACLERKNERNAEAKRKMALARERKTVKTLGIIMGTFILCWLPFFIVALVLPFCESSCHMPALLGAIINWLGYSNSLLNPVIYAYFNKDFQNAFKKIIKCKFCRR
The data set can be described thus: [3H]-8-OH-DPAT radioligand binding assay, rat cortex membranes. Particulars: for Ki: [3H]-8-OH-DPAT binding, means ±SEM; for inhibition at 300 µM: read-out: Inhibition at 300 µM.

Data set [1] has as its system Swiss mice. The data set can be described thus: Tail suspension test. The data set is classed as in vivo, mouse. Particulars: ip 30 min before; 6, 67 at 3 and 10 mg/kg, 69 at 1, 3, 10, 30 mg/kg, imipramine 30 mg/kg. Here is the method: The antidepressant-like activity was screened with the widely used tail suspension test. At 30 min before the behavioral assays, the mice were treated with 6, 67, and 69 at 3 mg/kg and 10 mg/kg ip, with 69 also at 1 mg/kg and 30 mg/kg ip, or were injected with 0.9% saline as control. Imipramine (30 mg/kg ip) was used as the reference drug.
(A) Effects of acute ip treatment with 6 (3, 10 mg/kg, n = 13, 9), 67 (3, 10 mg/kg, n = 6, 10), and 69 (1, 3, 10, 30 mg/kg, n = 8, 7, 8, 6) and imipramine (30 mg/kg, n = 8) in the tail suspension test. […] (B) Effects of acute ip treatment with 6 (3, 10 mg/kg, n = 8, 8), 67 (1, 3, 6 mg/kg; n = 5, 5, 5), and 69 (1, 3, 6 mg/kg, n = 10, 5, 5) on locomotor activity of the mice. […] (C) Effects of 10-day chronic ip treatment with 69 (0.3 mg/kg, daily; n = 10) in the tail suspension test. Data are mean values ± SEM of the immobility time, compared to control mice (n = 8): ∗∗, p < 0.01 (unpaired t-test). […]
quality control sample every seven test samples. The absolute matrix effect was checked by comparing the analyte responses in the standard solutions to the samples spiked in the tissue incubation medium from the control experiment without the analyte, and a deviation of less than ±20% was deemed acceptable.
4.2.10In vitro radioligand binding assay
Rats were humanely killed by decapitation and their brains were removed, washed and rapidly dissected on ice. Homogenisation was performed using a homogeniser (PRO Scientific Inc) at 30,000 rpm for 1 min. For 5-HT1A binding assays, the cortex tissues were homogenised in 30 volumes/weight ice-cold 50 mM Tris–HCl buffer (pH 7.4), and the homogenate was centrifuged at 40,000× g for 15 min at 0 °C to 4 °C. The resulting pellets were resuspended in 30 volumes/weight of the same buffer, and incubated at 37 °C for 20 min. The centrifugation step was repeated twice under the same conditions as described above, and the final pellets were resuspended in 30 volumes/weight 50 mM Tris–HCl buffer (pH 7.4), and stored at –80 […]
For the [3H]-8-OH-DPAT binding assay (the 5-HT1A receptor binding assay), the membranes were thawed and resuspended in 50 mM Tris–HCl (pH 7.4) with 1 mM MnCl2, to a final protein concentration of 0.5 mg/mL. The incubation was carried out at 25 °C for 1 h in a final volume of 1 mL membrane suspension in the presence of the sample assayed and with 0.2 nM [3H]-8-OH-DPAT (170.2 Ci/mmol). Serotonin was used as the positive control. Non-specific binding was determined in parallel incubations in the presence of serotonin (10 μM).
4.2.11 Tail suspension test
The tail suspension test was carried out according to the methodology proposed by Steru and co-workers.22 The mice were individually suspended by the tail from a metal hook (distance

For data set [2], the system named is Swiss mice. Description: Locomotor activity test. The data set is classed as in vivo, mouse. To be noted: acute 10 mg/kg ip.
A further data set relates to SH-SY5Y cells. The data set can be described thus: MTS cytotoxicity assay. To be noted: 24 h, 5 μM and 10 μM.
The test system of data set [3] is Swiss mice. Description: Elevated plus maze test. In kind it is in vivo, mouse. To be noted: for Open arm entries (%) / Time in centre (%) / Time in open arms (%) / Total arm entries: acute ip.
Data set [4] is described as follows: Thermodynamic solubility in PBS. In kind it is physicochemical. Particulars: PBS (pH 7.4), 37 °C, 24 h, hydrochloride salts.
The next data set concerns the target T2, hMAO-A (Homo sapiens, UniProt P21397).
T2 construct: purchased Sigma Aldrich; host or cells: baculovirus-infected insect cells (BTI-TN-5B1-4)
T2 sequence (P21397 1-527): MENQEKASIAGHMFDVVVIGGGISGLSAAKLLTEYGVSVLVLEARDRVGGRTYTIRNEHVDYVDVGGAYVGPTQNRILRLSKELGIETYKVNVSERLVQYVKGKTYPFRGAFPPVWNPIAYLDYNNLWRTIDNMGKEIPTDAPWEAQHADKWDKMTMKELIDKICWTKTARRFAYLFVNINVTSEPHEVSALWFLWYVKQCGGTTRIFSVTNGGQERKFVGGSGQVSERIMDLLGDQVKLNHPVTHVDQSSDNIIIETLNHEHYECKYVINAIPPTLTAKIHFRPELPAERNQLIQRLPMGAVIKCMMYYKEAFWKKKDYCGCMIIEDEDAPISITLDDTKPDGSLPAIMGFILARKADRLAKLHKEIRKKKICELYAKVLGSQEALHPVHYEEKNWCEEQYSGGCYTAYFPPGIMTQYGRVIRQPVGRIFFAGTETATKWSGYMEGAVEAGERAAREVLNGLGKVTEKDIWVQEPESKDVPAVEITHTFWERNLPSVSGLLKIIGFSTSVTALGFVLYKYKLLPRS
The data set can be described thus: hMAO-A inhibition, HRP–Amplex Red coupled fluorimetric assay. In kind it is biochemical. To be noted: supplement csv; RA at 100 micromolar.

Data set [5] is described as follows: Chemical stability and photoisomerization by proton NMR in D2O. In kind it is physicochemical. To be noted: hydrochloride salts, more than 1 year at room temperature protected from sunlight, 1H NMR in D2O. Here is the method:
Possible chemical instability and photoisomerization of E/Z isomers were also addressed as these are known liabilities of stilbene derivatives.[23] Proton NMRs of 69 (cis derivative), 84 (trans derivative), and 100 (ethyl analogue) in the form of hydrochloride salts were recorded in D2O (Figures S1–S3). […] The samples dissolved in the NMR tubes were then left on the benchtop exposed to natural daylight for 7 days, which could induce photoisomerization. […] Altogether, these studies imply reasonable stability of the compounds.
Figure S2. […] Compound 84 (trans isomer, […]
hydrochloride salt) was dissolved in D2O and the spectra were recorded at time 0 h, 1 h, 24 h and 7 days. Sample was exposed to day light in between the measurement, which could induce photoisomerization and potentially also chemical degradation.
The sample was previously stored at […]

The test system of data set [6] is Swiss mice. Description: Haloperidol-induced catalepsy test. The data set is classed as in vivo, mouse. To be noted: 5 mg/kg, reference drug.
A further data set has as its system MAO-A/B. Description: In vitro MAO inhibition in mouse brain homogenate, p-tyramine substrate. In kind it is biochemical. Particulars: substrate of MAO A/B, control mouse brain homogenates.

Entries after “also recorded” stand apart in the source; their conditions may differ.

In the case of `C#CCN1CCC(/C=C\c2ccc(F)cc2)CC1` [Compound 6, (Z)-4-(4-Fluorostyryl)-1-(prop-2-yn-1-yl)piperidine], at 5-HT1A receptor, affinity was put at a Ki of 2400 ± 600 nM and the inhibition at 300 µM came out at 88%. For the same compound, the “immobility time, acute treatment” value in the data set on Swiss mice [1] is “significantly reduced”. The spontaneous locomotor activity entry with Swiss mice [2] was “significantly decreased”. Further, in the data set on SH-SY5Y cells, the cytotoxic effects entry is on record as “no significant cytotoxic effects”. The “increase in the proportion of open-arm entries” value with Swiss mice [3] (10 mg/kg ip, vs 0.9% saline) is on record as 2.0 fold. Moreover, in the data set on Swiss mice [3] (3 mg/kg), the “Open arm entries (%)” value turned out to be 10.8 ±2.6%, the “Time in centre (%)” value amounted to 43.5 ±2.8%, the “Time in open arms (%)” value is 9.1 ±1.9% and the Total arm entries came out at 22.0 ±1.5. In addition, in the data set on Swiss mice [3] (10 mg/kg), the “Open arm entries (%)” value is on record as 27.5 ±3.2% and the “Time in open arms (%)” value came to 8.4 ±2.7%. The thermodynamic solubility result in data set [4] is given as “at least 17.6 g/250 mL”.

`C#CCN1CCC(/C=C\c2ccccc2)CC1` [Compound 67, (Z)-1-(Prop-2-yn-1-yl)-4-styrylpiperidine]: on 5-HT1A receptor, the affinity corresponds to a Ki of 700 ± 100 nM and the inhibition at 300 µM turned out to be 96%. In addition, the “immobility time, acute treatment” value in the data set on Swiss mice [1] is “did not decrease the immobility time”. Moreover, the cytotoxic effects entry in the data set with SH-SY5Y cells is “no significant cytotoxic effects”. In the data set with Swiss mice [3] (3 mg/kg), the “Open arm entries (%)” value worked out at 15.0 ±2.3%, the “Time in centre (%)” value worked out at 39.8 ±1.7%, the “Time in open arms (%)” value was found to be 11.9 ±2.3% and the Total arm entries is listed as 20.6 ±2.4. Further, in the data set on Swiss mice [3] (6 mg/kg), the “Open arm entries (%)” value is recorded as 15.6 ±3.4%, the “Time in centre (%)” value came to 53.1 ±5.7%, the “Time in open arms (%)” value is given as 5.4 ±1.0% and the Total arm entries was determined as 15.4 ±0.8. For the same compound, in data set [4], the thermodynamic solubility is ≥ 10.5 g/250 mL.

For the compound `C#CCN1CCC(/C=C/c2ccc(C(F)(F)F)cc2)CC1` [Compound 84, (E)-1-(Prop-2-yn-1-yl)-4-(4-(trifluoromethyl)styryl)piperidine], the inhibition at 300 µM on 5-HT1A receptor turned out to be 48%. Moreover, the cytotoxic effects entry in the data set with SH-SY5Y cells is “no significant cytotoxic effects”. Also, the “IC50(MAO-A) class” value at hMAO-A was “na (na-not_active(RA_at_100micromolar>50%))”. Also, the “chemical stability on storage” value in data set [5] is on record as “only smaller amounts of impurities were detected; also recorded: partial degradation”.

Consider `CN1[C@@H]2C[C@@H](OC(=O)[C@H](CO)c3ccccc3)C[C@H]1[C@@H]1O[C@@H]12` [Scopolamine, reference compound], for which the “latency time to descend from the bar” value in the data set on Swiss mice [6] is reported as “significantly decreased the latency time”.

`CN(C)CCCN1c2ccccc2CCc2ccccc21` [imipramine, reference compound]: the “immobility time, acute treatment” value in the data set on Swiss mice [1] was “significantly reduced”.

Take `NCCc1ccc(O)cc1` [p-Tyramine, reference compound]: the K0.5 in the data set with MAO-A/B is 0.071 ± 0.032 mM.

A word on the Ki: it is a dissociation constant, usually derived from enzyme kinetics or from competition with a known ligand. Low values mean a stronger hold on the target, high ones a looser hold on the target. One may read the inhibition as the drop in the measured response relative to a control, in per cent.

The record behind these values is article PMC7307930, “Stereoselective Activity of 1-Propargyl-4-styrylpiperidine-like Analogues That Can Discriminate between Monoamine Oxidase Isoforms A and B” (Journal of Medicinal Chemistry, 2020).
